Data from US12552772B2, “2-pyrazole anilines and related analogs for inhibiting YAP/TAZ-TEAD” (KATHOLIEKE UNIVERSITEIT LEUVEN, priority 2021, dated 2026).

How the values were obtained:
Type in all cases: cell-based
NCI-H2052 = experiment: Mesothelioma cell line proliferation assay (ATPlite), NCI-H2052; conditions: Homo sapiens, NCI-H2052, 144 h, NCI-H2052 cells, 6 days, ATPlite cell viability
Procedure: (§1) Mesothelioma cell lines, NCI-H226 and NCI-H2052 (all sourced from the ATCC cell culture collection) are plated in 96-well plates (Corning® 96 Well White Polystyrene Microplate clear flat bottom, white polystyrene (TC-Treated)), at 1500 cells/well in full medium (RPMI 1640 ATCC modification with L-glutamine, HEPES, Phenol Red, Sodium Pyruvate, High glucose, Low sodium bicarbonate and 10% fetal bovine serum). Cells are incubated overnight at 37° C. in an incubator with 5% CO2. Then compounds, dissolved in DMSO, are added in dose-response. Cells are incubated with compound dilutions for another 6 days at 37° C. in an incubator with 5% CO2. Cell viability is quantitated using the ATPlite kit (Perkin-Elmer) and the luminescence is read-out using an Envision instrument (Perkin-Elmer). The amount of relative light units produced using the ATPlite kit is used to calculated percent of inhibition.
(§2) The activities of example compounds tested are depicted in the table below. The activity ranges A, B and C refer to EC50 values in the mesothelioma cell line proliferation assay as described as follows: “A”: EC50<1 μM; “B”: 1 μM s EC50≤10 μM and “C”: EC50>10 μM. NT: not tested.

[1] = system: YAP/TAZ-TEAD transcription; experiment: Reporter gene assay for measuring the inhibition of YAP/TAZ-TEAD transcription (TEAD-responsive element luciferase reporter in Hek293T cells); conditions: Homo sapiens, HEK-293T, 24 hours incubation
Procedure, shortened: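 Percent inhibition, scaled between vehicle (0%) and a positive control inhibitor (100%), came from SteadyLite luciferase signal after 24 h compound exposure at 37 °C/5% CO2. Cells: Hek293T transiently carrying a TEAD-responsive luciferase reporter; EC50 derived.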

NCI-H226 = experiment: Mesothelioma cell line proliferation assay (ATPlite), NCI-H226; conditions: Homo sapiens, 144 h; NCI-H226 cells, 6 days, ATPlite cell viability
Procedure: as §1, §2

| EC50 (NCI-H2052) | EC50 [1] | EC50 (NCI-H226) | Compound |
| --- | --- | --- | --- |
| < 1000 nM | < 1000 nM | < 1000 nM | C=CC(=O)NCc1ccc(-c2ccc(F)cc2)cc1-c1ccccn1 [compound 165, N-((4′-fluoro-3-(pyridin-2-yl)-[1,1′-biphenyl]-4-yl)methyl)acrylamide] |
| < 1000 nM | < 1000 nM | < 1000 nM | C=CC(=O)NCc1ccc(-c2ccc(F)cc2)cc1-c1ccn(C2CC2)n1 [compound 166, N-((3-(1-cyclopropyl-1H-pyrazol-3-yl)-4′-fluoro-[1,1′-biphenyl]-4-yl)methyl)acrylamide] |
| < 1000 nM | < 1000 nM | 1000 to 10000 nM | C=CC(=O)NCc1ccc(-c2ccc(C(F)(F)F)cc2)cc1-c1ccn(C2CC2)n1 [compound 167, N-((3-(1-cyclopropyl-1H-pyrazol-3-yl)-4′-(trifluoromethyl)-[1,1′-biphenyl]-4-yl)methyl)acrylamide] |
| 1000 to 10000 nM | < 1000 nM | < 1000 nM | C=CC(=O)NCc1cc(-c2ccc(F)cc2)cc(-c2ccn(C3CC3)n2)c1 [compound 169, N-((5-(1-cyclopropyl-1H-pyrazol-3-yl)-4′-fluoro[1,1′-biphenyl]-3-yl)methyl)acrylamide] |
| < 1000 nM | < 1000 nM | < 1000 nM | C=CC(=O)NCc1ccc(-c2ccc(F)cc2)cc1-c1ccn(C(F)F)n1 [compound 170, N-((3-(1-(difluoromethyl)-1H-pyrazol-3-yl)-4′-fluoro-[1,1′-biphenyl]-4-yl)methyl)acrylamide] |
| < 1000 nM | < 1000 nM | < 1000 nM | C=CC(=O)NCc1ccc(-c2ccc(C(F)(F)F)cc2)cc1-c1ccn(C(F)F)n1 [compound 172, N-((3-(1-(difluoromethyl)-1H-pyrazol-3-yl)-4′-(trifluoromethyl)-[1,1′-biphenyl]-4-yl)methyl)acrylamide] |
| 1000 to 10000 nM | < 1000 nM | < 1000 nM | C=CC(=O)NCc1cc(-c2ccc(F)cc2)cc(-c2ccn(C(F)F)n2)c1 [compound 174, N-((5-(1-(difluoromethyl)-1H-pyrazol-3-yl)-4′-fluoro-[1,1′-biphenyl]-3-yl)methyl)acrylamide] |
| < 1000 nM | < 1000 nM | < 1000 nM | C=CC(=O)NCc1ccc(-c2ccc(F)cc2)cc1-c1cc(C)n(C)n1 [compound 176, N-((3-(1,5-dimethyl-1H-pyrazol-3-yl)-4′-fluoro-[1,1′-biphenyl]-4-yl)methyl)acrylamide] |
| < 1000 nM | < 1000 nM | < 1000 nM | C=C(F)C(=O)NCc1ccc(-c2ccc(C(F)(F)F)cc2)cc1-c1ccn(C)n1 [compound 177, 2-fluoro-N-((3-(1-methyl-1H-pyrazol-3-yl)-4′-(trifluoromethyl)-[1,1′-biphenyl]-4-yl)methyl)acrylamide] |
| < 1000 nM | < 1000 nM | < 1000 nM | C=CC(=O)NCc1ccc([C@H]2CC[C@@H](C(F)(F)F)CC2)cc1-c1ccn(C)n1 [compound 179, cis-N-(2-(1-methyl-1H-pyrazol-3-yl)-4-(4-(trifluoromethyl)cyclohexyl)benzyl)acrylamide] |
| < 1000 nM | < 1000 nM | < 1000 nM | C=CC(=O)NCc1ccc(C2CCC(F)(F)CC2)cc1-c1ccn(C)n1 [compound 180, N-(4-(4,4-difluorocyclohexyl)-2-(1-methyl-1H-pyrazol-3-yl)benzyl)acrylamide] |
| < 1000 nM | < 1000 nM | < 1000 nM | C=CC(=O)NCc1ccc(N2CCC(F)(F)CC2)cc1-c1ccn(C)n1 [compound 182, N-(4-(4,4-difluoropiperidin-1-yl)-2-(1-methyl-1H-pyrazol-3-yl)benzyl)acrylamide] |
| < 1000 nM | < 1000 nM | < 1000 nM | C=CC(=O)NCc1ccc(-c2ccc(F)cc2)cc1-c1cn(C)nn1 [compound 184, N-((4′-fluoro-3-(1-methyl-1H-1,2,3-triazol-4-yl)-[1,1′-biphenyl]-4-yl)methyl)acrylamide] |
| 1000 to 10000 nM | < 1000 nM | < 1000 nM | C=CC(=O)NCc1ccc(-c2ccc(F)cc2)cc1-c1cn(C(F)F)nn1 [compound 185, N-((3-(1-(difluoromethyl)-1H-1,2,3-triazol-4-yl)-4′-fluoro-[1,1′-biphenyl]-4-yl)methyl)acrylamide] |
| 1000 to 10000 nM | < 1000 nM | < 1000 nM | C=CC(=O)NCc1ccc(-c2ccc(F)cc2)cc1-c1cnn(C)n1 [compound 187, N-((4′-fluoro-3-(2-methyl-2H-1,2,3-triazol-4-yl)-[1,1′-biphenyl]-4-yl)methyl)acrylamide] |
| < 1000 nM | < 1000 nM | < 1000 nM | C=CC(=O)NCc1ccc(-c2ccc(F)cc2)cc1-c1nnn(C)n1 [compound 188, N-((4′-fluoro-3-(2-methyl-2H-tetrazol-5-yl)-[1,1′-biphenyl]-4-yl)methyl)acrylamide] |
| 1000 to 10000 nM | < 1000 nM | < 1000 nM | C=CC(=O)NCc1ccc(-c2ccc(F)cc2)cc1-c1nnn(C(F)F)n1 [compound 190, N-((3-(2-(difluoromethyl)-2H-tetrazol-5-yl)-4′-fluoro-[1,1′-biphenyl]-4-yl)methyl)acrylamide] |
| < 1000 nM | < 1000 nM | < 1000 nM | C=CC(=O)NCc1ccc(-c2ccc(F)cc2)nc1-c1ccn(C)n1 [compound 193, N-((6-(4-fluorophenyl)-2-(1-methyl-1H-pyrazol-3-yl)pyridin-3-yl)methyl)acrylamide] |
| < 1000 nM | < 1000 nM | < 1000 nM | C=CC(=O)NCc1ccc(-c2ccccc2)nc1-c1ccn(C)n1 [compound 194, N-((2-(1-methyl-1H-pyrazol-3-yl)-6-phenylpyridin-3-yl)methyl)acrylamide] |
| < 1000 nM | < 1000 nM | < 1000 nM | C=CC(=O)NCc1ccc(-c2ccc(F)cc2)nc1-c1ccn(C(F)F)n1 [compound 198, N-((2-(1-(difluoromethyl)-1H-pyrazol-3-yl)-6-(4-fluorophenyl)pyridin-3-yl)methyl)acrylamide] |
| < 1000 nM | < 1000 nM | < 1000 nM | C=CC(=O)NCc1ncc(-c2ccc(F)cc2)cc1-c1ccn(C)n1 [compound 201, N-((5-(4-fluorophenyl)-3-(1-methyl-1H-pyrazol-3-yl)pyridin-2-yl)methyl)acrylamide] |
| < 1000 nM | < 1000 nM | < 1000 nM | C=CC(=O)NCc1ncc(-c2ccc(F)cc2)cc1-c1ccn(C2CC2)n1 [compound 202, N-((3-(1-cyclopropyl-1H-pyrazol-3-yl)-5-(4-fluorophenyl)pyridin-2-yl)methyl)acrylamide] |
| < 1000 nM | < 1000 nM | < 1000 nM | C=CC(=O)NCc1ncc(-c2ccc(F)cc2)cc1-c1ccn(C(F)F)n1 [compound 203, N-((3-(1-(difluoromethyl)-1H-pyrazol-3-yl)-5-(4-fluorophenyl)pyridin-2-yl)methyl)acrylamide] |
| < 1000 nM | < 1000 nM | < 1000 nM | C=CC(=O)NCc1cnc(-c2ccc(F)cc2)cc1-c1ccn(C)n1 [compound 205, N-((6-(4-fluorophenyl)-4-(1-methyl-1H-pyrazol-3-yl)pyridin-3-yl)methyl)acrylamide] |
